“Also recorded” adds a separate entry of the source.
Experiments:
[1] = system: MDA-MB-231 breast cancer cells; assay: MDA-MB-231 flank xenograft tumor growth; type: in vivo, athymic nude mice; conditions: 500 mg/kg daily i.p.; tumor volume at 3 weeks post tumor cell injection
Experimental: A xenograft model was employed in which MDA-MB-231 breast cancer cells injected into the flanks of athymic nude mice to evaluate the potential tumor promoting properties of the products of aerobic glycolysis (such as 3-hydroxy-butyrate and L-lactate). Tumor growth was assessed by measuring tumor volume, at 3-weeks post tumor cell injection. During this time period, mice were administered either PBS alone, or PBS containing 3-hydroxy-butyrate (500 mg/kg) or L-lactate (500 mg/kg), via daily intra-peritoneal (i.p.) injections. Note that 3-hydroxy-butyrate is sufficient to promote an ˜2.5-fold increase in tumor growth, relative to the PBS-alone control. Under these conditions.
To evaluate the potential tumor promoting properties of the products of aerobic glycolysis (such as 3-hydroxy-butyrate and L-lacate), a xenograft model employing MDA-MB-231 breast cancer cells injected into the flanks of athymic nude mice was used. Tumor growth was assessed by measuring tumor volume, at 3-weeks post tumor cell injection. During this time period, mice were administered either PBS alone, or PBS containing 3-hydroxy-butyrate (500 mg/kg) or L-lactate (500 mg/kg), via daily intra-peritoneal (i.p.) injections.

[2] = system: MDA-MB-231 breast cancer cells; assay: Tumor vascularity by CD31 immuno-staining of xenograft tumors; type: in vivo, athymic nude mice; conditions: 500 mg/kg daily i.p.; primary xenograft tumors
Experimental: Tumor angiogenesis could account for the tumor-promoting properties of 3-hydroxy-butyrate. Thus, the status of tumor vascularity was evaluated using antibodies directed against CD31. However, the vascular density (number of vessels per field) was not increased by the administration of either 3-hydroxy-butyrate or L-lactate. Thus, other mechanisms, such as the “Reverse Warburg Effect” may be operating to increase tumor growth. n.s., not significant.
One mechanism that could account for the tumor-promoting properties of 3-hydroxy-butyrate is increased tumor angiogenesis. Thus, the status of tumor vascularity using antibodies directed against CD31 was evaluated. […] Thus, other mechanisms, such as the “Reverse Warburg Effect” may be operating to increase tumor growth.

[3] = system: MDA-MB-231 cells; assay: Modified Boyden Chamber (Transwell) cell migration assay; type: cell-based, human; conditions: 10 mM in lower chamber
Experimental: 3-hydroxy-butyrate or L-lactate can function as chemo-attractants. shown using a modified “Boyden Chamber” assay, employing Transwell cell culture inserts. MDA-MB-231 cells were placed in the upper chambers, and 3-hydroxy-butyrate (10 mM) or L-lactate (10 mM) were introduced into the lower chambers. Note that both 3-hydroxy-butyrate and L-lactate promoted cancer cell migration by nearly 2-fold. *p<0.05, control (vehicle alone) versus 3-hydroxy-butyrate or L-lactate (Student's t-test).
Next, whether 3-hydroxy-butyrate or L-lactate can function as chemo-attractants was assessed, using a modified “Boyden Chamber” assay, employing Transwell cell culture inserts. MDA-MB-231 cells were placed in the upper chambers, and 3-hydroxy-butyrate (10 mM) or L-lactate (10 mM) were introduced into the lower chambers. […] Thus, the metabolic products of aerobic glycolysis can also function as chemo-attractants for cancer cells, probably via a form of nutrient sensing.

[4] = system: MDA-MB-231 cells; assay: Lung colonization (metastasis) assay, tail vein injection; type: in vivo, athymic nude mice; conditions: 7 weeks post-injection; India ink staining
Experimental: To examine the effect of 3-hydroxy-butyrate and L-lactate on cancer cell metastasis, a well-established lung colonization assay was used, where MDA-MB-231 cells are injected into the tail vein of athymic nude mice. After 7 weeks post-injection, the lungs were harvested and the metastases were visualized with India ink staining. Using this approach, the lung parenchyma stains black, while the tumor metastatic foci remain unstained, and appear white. The number of metastases per lung lobe was scored. Note that relative to PBS-alone, the administration of L-lacate stimulated the formation of metastatic foci by ˜10-fold. Under these conditions, 3-hydroxy-butryate had no effect on metastasis formation. *p<0.01, PBS alone versus L-lactate (Student's t-test and ANOVA); *p<0.05, PBS alone versus L-lactate (Mann-Whitney test).
The effect of 3-hydroxy-butyrate and L-lactate on cancer cell metastasis were measured. For this purpose, a well-established lung colonization assay was used, where MDA-MB-231 cells are injected into the tail vein of athymic nude mice. After 7 weeks post-injection, the lungs were harvested and the metastases were visualized with India ink staining. In this method, the lung parenchyma stains black, while the tumor metastatic foci remain unstained, and appear white. For quantitation purposes. the number of metastases per lung lobe was scored.

[5] = system: MCF7 cancer cells; conditions: L-lactate added to culture media; cited from earlier work

Structure (SMILES) | increase in tumor growth (tumor volume) relative to PBS-alone control [1] | vascular density (number of vessels per field), CD31 [2] | promotion of cancer cell migration versus vehicle alone [3] [fold] | appearance of lung metastatic foci versus PBS-alone controls (representative images) [4] | formation of lung metastatic foci (metastases per lung lobe) relative to PBS-alone [4] | mitochondrial mass [5]
C[C@H](O)C(=O)O [L-lactate] | no significant effect; also recorded: did not increase | not increased | ~2 | more numerous, and are also larger in size | ~10 fold | dramatically increase
CC(O)CC(=O)O (stereo not shown) [3-hydroxy-butyrate] | ~2.5 fold | not increased; also recorded: without any significant increases | ~2 | – | no effect | –
